# Read-outs that look alike come from different tables or passages of the source. Residues, ends and D or L forms follow the SMILES beside them.
# How the values were obtained:
# Assay type in all cases: cell-based
# [1] = test system: Pseudomonas aeruginosa PAO1 strain H103; details: PAO1
# Description: The biological activity of the peptides can be determined by standard methods known to those of skill in the art, such as “minimal inhibitory concentration (MIC)” assay described in the present examples, whereby the lowest concentration at which no change in OD is observed for a given period of time is recorded as MIC.
# (§1) Minimal inhibitory concentration (MIC) determination. The MIC of the peptides were measured using a modified broth microdilution method in Mueller Hinton (MH) medium (Wu M, Hancock R E W. 1999. Interaction of the cyclic antimicrobial cationic peptide bactenecin with the outer and cytoplasmic membrane. J Biol Chem 274, 29-35). Briefly, the peptides were dissolved and stored in glass vials. The assay was performed in sterile 96-well polypropylene microtitre plates were used. Serial dilutions of the peptides to be assayed were performed in 0.01% acetic acid (Fisher) containing 0.2% bovine serum albumin (Boehringer Mannheim GmbH) at 10× the desired final concentration. Ten microlitres of the 10× peptides were added to each well of a 96-well polypropylene plate containing 90 μl of MH media per well. Bacteria were added to the plate from an overnight culture at 2-7×10^5 colony forming units/ml and incubated over night at 37° C. The MIC was taken as the concentration at which no growth was observed.
# (§2) Strains. For the killing assay a mini-Tn5-lux mutant in Pseudomonas aeruginosa H103 was used. The strain is called H1001 and contains a fliC::luxCDABE transcriptional fusion resulting in constitutive expression of luciferase. The bacterial strains used for the antimicrobial activity assays included Escherichia coli UB1005 (F-, nalA37, metB1), a wild-type Salmonella enterica ssp. typhimurium (S. typhimurium), wild-type Pseudomonas aeruginosa PAO1 strain H103, Enterococcus faecalis ATCC29212, Staphylococcus aureus ATCC25923, and a clinical isolate of Staphylococcus epidermidis obtained from Dr. D. Speert (Department of Medicine, University of British Columbia). Antifungal activity was tested using a lab isolate of Candida albicans obtained from Dr. B. Dill (Department of Microbiology and Immunology, University of British Columbia).
# [2] = test system: Enterococcus faecalis ATCC29212; details: ATCC29212
# Description: as §1, §2
# Escherichia coli UB1005 = test system: Escherichia coli UB1005
# Description: as §1, §2
# [3] = test system: Staphylococcus aureus ATCC25923; details: ATCC25923
# Description: as §1, §2
# [4] = test system: clinical isolate of Staphylococcus epidermidis; details: clinical isolate of
# Description: as §1, §2
# [5] = test system: lab isolate of Candida albicans; details: lab isolate of
# Description: as §1, §2
# [6] = test system: wild-type Salmonella enterica ssp. typhimurium
# Description: as §1, §2
# [7] = indolicidin substitution variants (Table 4)
compound,measurement,setting,value
"CC(C)C[C@H](NC(=O)[C@@H](N)Cc1ccccc1)C(=O)N1CCC[C@H]1C(=O)N[C@@H](CCCCN)C(=O)N[C@@H](CCCCN)C(=O)N[C@@H](Cc1ccccc1)C(=O)N[C@@H](CCCNC(=N)N)C(=O)N[C@@H](Cc1c[nH]c2ccccc12)C(=O)N[C@@H](Cc1c[nH]c2ccccc12)C(=O)N[C@@H](CCCCN)C(=O)N[C@@H](Cc1ccc(O)cc1)C(=O)N[C@@H](CCCNC(=N)N)C(=O)N[C@@H](CCCCN)C(N)=O [HH972, FLPKKFRWWKYRK] (H-FLPKKFRWWKYRK-NH2; N-terminus assumed)",MIC P. aerug,[1],31 µg/mL
same,MIC E. faecalis,[2],>125 µg/mL
same,MIC E. coli,Escherichia coli UB1005; [7],16 µg/mL
same,MIC S. aureus,[3],31 µg/mL
same,MIC S. epi.,[4],8 µg/mL
same,MIC C. albicans,[5],31 µg/mL
same,MIC S. typhi,[6],31 µg/mL
"CC[C@H](C)[C@H](NC(=O)[C@H](CCCNC(=N)N)NC(=O)[C@H](CC(C)C)NC(=O)[C@H](CCCNC(=N)N)NC(=O)[C@@H](N)C(C)C)C(=O)N[C@@H](CCCNC(=N)N)C(=O)N[C@H](C(=O)N[C@@H](CCCNC(=N)N)C(=O)N[C@H](C(=O)N[C@H](C(=O)N[C@@H](CCCNC(=N)N)C(=O)N[C@@H](CCCCN)C(N)=O)[C@@H](C)CC)C(C)C)C(C)C [HH11, VRLRIRVRVIRK] (H-VRLRIRVRVIRK-NH2; N-terminus assumed)",MIC P. aerug,[1],3 µg/mL
same,MIC E. faecalis,[2],12 µg/mL
same,MIC E. coli,Escherichia coli UB1005; UB1005,1.6 µg/mL
same,MIC S. aureus,[3],6 µg/mL
same,MIC S. epi.,[4],0.8 µg/mL
same,MIC C. albicans,[5],3 µg/mL
same,MIC S. typhi,[6],6 µg/mL
"CC[C@H](C)[C@H](NC(=O)[C@H](CCCNC(=N)N)NC(=O)[C@H](CC(C)C)NC(=O)[C@H](CCCNC(=N)N)NC(=O)[C@@H](N)C(C)C)C(=O)N[C@@H](CCCNC(=N)N)C(=O)N[C@H](C(=O)N[C@@H](C)C(=O)N[C@H](C(=O)N[C@@H](CCCNC(=N)N)C(=O)N[C@@H](CCCNC(=N)N)C(=O)N[C@@H](C)C(N)=O)C(C)C)C(C)C [HH7, VRLRIRVAVRRA] (H-VRLRIRVAVRRA-NH2)",MIC P. aerug,[1],12 µg/mL
same,MIC E. faecalis,[2],25 µg/mL
same,MIC E. coli,Escherichia coli UB1005; UB1005,6 µg/mL
same,MIC S. aureus,[3],12 µg/mL
same,MIC S. epi.,[4],1.6 µg/mL
same,MIC C. albicans,[5],6 µg/mL
same,MIC S. typhi,[6],6 µg/mL
"CC[C@H](C)[C@H](N)C(=O)N[C@@H](CC(C)C)C(=O)N[C@@H](CCCCN)C(=O)N[C@@H](Cc1c[nH]c2ccccc12)C(=O)N[C@@H](CCCCN)C(=O)N[C@@H](Cc1c[nH]c2ccccc12)C(=O)N1CCC[C@H]1C(=O)N[C@@H](Cc1c[nH]c2ccccc12)C(=O)N[C@@H](Cc1c[nH]c2ccccc12)C(=O)N[C@@H](CCCCN)C(=O)N[C@@H](Cc1c[nH]c2ccccc12)C(=O)N[C@@H](CCCNC(=N)N)C(=O)N[C@@H](CCCNC(=N)N)C(N)=O [HH970, ILKWKWPWWKWRR] (H-ILKWKWPWWKWRR-NH2; N-terminus assumed)",MIC P. aerug,[1],16 µg/mL
same,MIC E. faecalis,[2],31 µg/mL
same,MIC E. coli,Escherichia coli UB1005; [7],8 µg/mL
same,MIC S. aureus,[3],8 µg/mL
same,MIC S. epi.,[4],2 µg/mL
same,MIC C. albicans,[5],16 µg/mL
same,MIC S. typhi,[6],16 µg/mL
"CC[C@H](C)[C@H](NC(=O)[C@H](CCCNC(=N)N)NC(=O)[C@H](CC(C)C)NC(=O)[C@H](CCCNC(=N)N)NC(=O)[C@@H](N)C(C)C)C(=O)N[C@@H](CCCNC(=N)N)C(=O)N[C@H](C(=O)N[C@@H](C)C(=O)N[C@H](C(=O)N[C@H](C(=O)N[C@@H](CCCNC(=N)N)C(=O)N[C@@H](CCCCN)C(N)=O)[C@@H](C)CC)C(C)C)C(C)C [HH8, VRLRIRVAVIRK] (H-VRLRIRVAVIRK-NH2)",MIC P. aerug,[1],6 µg/mL
same,MIC E. faecalis,[2],12 µg/mL
same,MIC E. coli,Escherichia coli UB1005; UB1005,3 µg/mL
same,MIC S. aureus,[3],6 µg/mL
same,MIC S. epi.,[4],1.6 µg/mL
same,MIC C. albicans,[5],3 µg/mL
same,MIC S. typhi,[6],6 µg/mL
"CC[C@H](C)[C@H](N)C(=O)N[C@@H](CC(C)C)C(=O)N1CCC[C@H]1C(=O)N[C@@H](Cc1c[nH]c2ccccc12)C(=O)N[C@@H](CCCCN)C(=O)N[C@@H](CCCCN)C(=O)N1CCC[C@H]1C(=O)N[C@@H](Cc1c[nH]c2ccccc12)C(=O)N[C@@H](Cc1c[nH]c2ccccc12)C(=O)N1CCC[C@H]1C(=O)N[C@@H](Cc1c[nH]c2ccccc12)C(=O)N[C@@H](CCCNC(=N)N)C(=O)N[C@@H](CCCNC(=N)N)C(N)=O [HH113, ILPWKKPWWPWRR] (H-ILPWKKPWWPWRR-NH2; N-terminus assumed)",MIC P. aerug,[1],31 µg/mL
same,MIC E. faecalis,[2],125 µg/mL
same,MIC E. coli,Escherichia coli UB1005; [7],31 µg/mL
same,MIC S. aureus,[3],31 µg/mL
same,MIC S. epi.,[4],8 µg/mL
same,MIC C. albicans,[5],62 µg/mL
same,MIC S. typhi,[6],62 µg/mL
"CC[C@H](C)[C@H](NC(=O)[C@H](CCCNC(=N)N)NC(=O)[C@H](Cc1ccccc1)NC(=O)[C@H](CCCNC(=N)N)NC(=O)[C@@H](N)CCCCN)C(=O)N[C@@H](CCCNC(=N)N)C(=O)N[C@H](C(=O)N[C@@H](C)C(=O)N[C@H](C(=O)N[C@@H](CCCNC(=N)N)C(=O)N[C@@H](CCCNC(=N)N)C(=O)N[C@@H](C)C(N)=O)C(C)C)C(C)C [HH10, KRFRIRVAVRRA] (H-KRFRIRVAVRRA-NH2; N-terminus assumed)",MIC P. aerug,[1],25 µg/mL
same,MIC E. faecalis,[2],>50 µg/mL
same,MIC E. coli,Escherichia coli UB1005; UB1005,6 µg/mL
same,MIC S. aureus,[3],25 µg/mL
same,MIC S. epi.,[4],3.1 µg/mL
same,MIC C. albicans,[5],12 µg/mL
same,MIC S. typhi,[6],>50 µg/mL
"CC[C@H](C)[C@H](NC(=O)[C@H](CCCNC(=N)N)NC(=O)[C@H](Cc1c[nH]c2ccccc12)NC(=O)[C@H](CCCNC(=N)N)NC(=O)[C@@H](N)C(C)C)C(=O)N[C@@H](CCCNC(=N)N)C(=O)N[C@H](C(=O)N[C@@H](C)C(=O)N[C@H](C(=O)N[C@H](C(=O)N[C@@H](CCCNC(=N)N)C(=O)N[C@@H](C)C(N)=O)[C@@H](C)CC)C(C)C)C(C)C [HH4, VRWRIRVAVIRA] (H-VRWRIRVAVIRA-NH2)",MIC P. aerug,[1],6 µg/mL
same,MIC E. faecalis,[2],12 µg/mL
same,MIC E. coli,Escherichia coli UB1005; UB1005,1.6 µg/mL
same,MIC S. aureus,[3],12 µg/mL
same,MIC S. epi.,[4],1.6 µg/mL
same,MIC C. albicans,[5],12 µg/mL
same,MIC S. typhi,[6],6 µg/mL
"CC[C@H](C)[C@H](NC(=O)[C@H](CCCNC(=N)N)NC(=O)[C@H](Cc1c[nH]c2ccccc12)NC(=O)[C@H](CCC(N)=O)NC(=O)[C@@H](N)Cc1c[nH]cn1)C(=O)N[C@@H](CCCNC(=N)N)C(=O)N[C@H](C(=O)N[C@@H](C)C(=O)N[C@H](C(=O)N[C@@H](CCCNC(=N)N)C(=O)N[C@@H](CCCNC(=N)N)C(=O)N[C@@H](Cc1c[nH]cn1)C(N)=O)C(C)C)C(C)C [HH14, HQWRIRVAVRRH] (H-HQWRIRVAVRRH-NH2)",MIC P. aerug,[1],50 µg/mL
same,MIC E. faecalis,[2],>50 µg/mL
same,MIC E. coli,Escherichia coli UB1005; UB1005,6 µg/mL
same,MIC S. aureus,[3],25 µg/mL
same,MIC S. epi.,[4],12 µg/mL
same,MIC C. albicans,[5],25 µg/mL
same,MIC S. typhi,[6],25 µg/mL
"CC[C@H](C)[C@H](NC(=O)[C@H](CCCNC(=N)N)NC(=O)[C@H](Cc1ccccc1)NC(=O)[C@H](CCCNC(=N)N)NC(=O)[C@@H](N)C(C)C)C(=O)N[C@@H](CCCNC(=N)N)C(=O)N[C@H](C(=O)N[C@@H](C)C(=O)N[C@H](C(=O)N[C@H](C(=O)N[C@@H](CCCNC(=N)N)C(=O)N[C@@H](C)C(N)=O)[C@@H](C)CC)C(C)C)C(C)C [HH3, VRFRIRVAVIRA] (H-VRFRIRVAVIRA-NH2)",MIC P. aerug,[1],6 µg/mL
same,MIC E. faecalis,[2],25 µg/mL
same,MIC E. coli,Escherichia coli UB1005; UB1005,1.6 µg/mL
same,MIC S. aureus,[3],12 µg/mL
same,MIC S. epi.,[4],1.6 µg/mL
same,MIC C. albicans,[5],6 µg/mL
same,MIC S. typhi,[6],6 µg/mL

# — patent publication US8343475B2, “Small cationic antimicrobial peptides” (priority 2006, dated 2013)
